Measured values taken from publication PMC4257840 (Journal of Medicinal Chemistry, 2014).
Where two headings read alike, the source gives them in different places.

Key:
Der p 1 = target: T1, Der p 1 (Dermatophagoides pteronyssinus, UniProt P08176); assay: biochemical; type: biochemical
T1 sequence (P08176 99-320): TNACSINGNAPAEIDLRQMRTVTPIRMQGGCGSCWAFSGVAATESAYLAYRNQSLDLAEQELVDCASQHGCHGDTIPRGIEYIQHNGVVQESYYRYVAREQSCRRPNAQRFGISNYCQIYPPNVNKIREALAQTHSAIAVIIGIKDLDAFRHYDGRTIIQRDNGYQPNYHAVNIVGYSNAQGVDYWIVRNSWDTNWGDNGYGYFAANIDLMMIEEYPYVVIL
Procedure: Automated screening of inhibitory activity toward group 1 HDM peptidase allergens was performed as described elsewhere[25],[43] with the minor modification that Der p 1 or Der f 1 were incubated with inhibitors for 20 min prior to initiation of reactions by addition of substrate. In initial screening, the activity of each compound was measured using a series of 10 doubling dilutions from a starting concentration of 50 μM. […] Assays were performed in triplicate for calculation of mean ± SE IC50 values.

human liver Cat B = human liver Cat B (Homo sapiens, UniProt P07858); assay: Cathepsin B inhibition assay; settings: for IC50: read-out: Cat B IC50, mean ± SE
Procedure: Inhibition of Cat B was measured as described with modifications.[25] […] Progress curves were followed at 30 °C by detection of fluorescence at 320/420 nm (excitation/emission).
In all cases, for reactions involving inhibitors, the amount of reaction buffer was adjusted to 60 μL, the inhibitor added as a 10 μL aliquot, and incubated for 20 min with the enzyme prior to reaction start.

[1] = Measurement of LogD7.4 (n-octanol/PBS shake); type: physicochemical; settings: single determination, n-octanol/PBS pH 7.4; read-out: Log D7.4
Procedure: Appendix 4. Measurement of LogD7.4
Test compounds (~1 mg) were weighed into 2 mL HPLC vials. n- Octanol (0.7 mL), pre-saturated with 10 mM phosphate buffered saline pH7.4 (PBS), was added to each vial followed b y PBS (0. 7 mL), which had been pre-saturat ed with n-octanol. The mixtures were shaken for 90 min and then centrifuged for 10 min at 4,000 rpm. The upper organic l ayer (0.2 m L) and the aqueous la yer (0.5 mL) were removed from each vial and anal yz e d b y LC -MS. Mass spect ral anal ysis was used to confirm peak identity whilst the concentration of compound was assessed by a diode arra y det ecto r. The logD for each compound was calculated b y takin g th e lo g of its concentration ratio between the oct anol and aqueous la ye r s.Given the robustness of the assa y and the fact that the info rmation was us ed onl y for gen eral guid ance, thes e measu rements were based on singlicate det erminations.

[2] = tested on: nonsensitized rats challenged with a natural mixture of HDM allergens; settings: i.t. aerosol typically 60-360 min prior to allergen challenge, unsensitised BN rats

SMILES	IC50 (Der p 1)	IC50 (Der p 1; mean ± SE)	IC50 (human liver Cat B)	logD at 1.5 h [1]	duration of protection: trend of inhibition of eosinophil recruitment with increasing pre-treatment interval [2]	inhibition of Cat B (human liver Cat B; at 2.5 μM)
Cc1n[nH]c(C)c1C(=O)N[C@H](C(=O)N[C@@H](C)C(=O)NC(C(=O)C(=O)NCc1ccccc1)C(C)C)C(C)(C)C (mixture of isomers) [Compound 30]	67 ± 10 nM					
CC(C)C(NC(=O)[C@H](C)NC(=O)[C@H](Cc1ccccc1)NC(=O)c1ccccc1)C(=O)C(=O)NC1CCOCC1 (mixture of isomers) [Compound 33]		55 ± 4 nM	311 ± 6 nM			
CCCC[C@H](NC(=O)[C@H](C)NC(=O)[C@H](Cc1ccccc1)NC(=O)c1ccccc1)C(=O)CN1CCCC1 [Compound 3]		65 nM				
CCCC[C@H](NC(=O)[C@H](C)NC(=O)[C@H](Cc1ccccc1)NC(=O)c1ccccc1)C(=O)C(=O)N1CCCC1 [Compound 4]		997 nM				
CC(C)[C@H](NC(=O)[C@H](C)NC(=O)[C@H](Cc1ccccc1)NC(=O)c1ccccc1)C(=O)C(=O)NCc1ccccc1 [Compound 20]		12 ± 2 nM	50 ± 5 nM			
C[C@H](NC(=O)[C@H](Cc1ccccc1)NC(=O)c1ccccc1)C(=O)N[C@H](C(=O)C(=O)NC1CCCCC1)C(C)(C)C [Compound 21]		9170 ± 880 nM				
CC(C)[C@H](NC(=O)[C@H](C)NC(=O)[C@@H](NC(=O)c1ccccc1)C(C)(C)c1ccccc1)C(=O)C(=O)NCc1ccccc1 [Compound 23]		42 ± 6 nM	446 ± 11 nM			
CCC[C@H](NC(=O)[C@H](Cc1ccccc1)NC(=O)c1ccccc1)C(=O)N[C@H](C(=O)C(=O)NC1CCCCC1)C(C)C [Compound 24]		164 ± 24 nM	67 ± 1 nM			
CC(C)[C@H](NC(=O)[C@H](C)NC(=O)[C@@H](NC(=O)c1cccc2ccccc12)C(C)(C)C)C(=O)C(=O)NC1CCCCC1 [Compound 25]		20 ± 3 nM	721 ± 35 nM	4.3		
CC(C)[C@H](NC(=O)[C@H](C)NC(=O)[C@@H](NC(=O)c1ccnc2ccccc12)C(C)(C)C)C(=O)C(=O)NC1CCCCC1 [Compound 26]		13 ± 2 nM	628 ± 47 nM	3.5		
CC(C)[C@H](NC(=O)[C@H](C)NC(=O)[C@@H](NC(=O)c1ccnc2ccccc12)C(C)(C)C)C(=O)C(=O)NCc1ccccc1 [Compound 27, Quinoline-4-carboxylic Acid {(S)-1-[(S)-1-((S)-1-Benzylaminooxalyl-2-methyl-propylcarbamoyl)-ethylcarbamoyl]-2,2-dimethyl-propyl}-amide]		18 ± 1 nM	3400 ± 187 nM	3.4	rise to a peak	
CC(C)[C@H](NC(=O)[C@H](C)NC(=O)[C@@H](NC(=O)C1CCN(C)CC1)C(C)(C)C)C(=O)C(=O)NCc1ccccc1 [Compound 31]		19 ± 2 nM	283 ± 50 nM			
CC(C)[C@H](NC(=O)[C@H](C)NC(=O)[C@H](Cc1ccccc1)NC(=O)c1ccccc1)C(=O)C(=O)NC1CCN(C)CC1 [Compound 34]		115 ± 14 nM				
CC(C)[C@H](NC(=O)[C@H](C)NC(=O)[C@@H](NC(=O)c1ccccc1)C(C)(C)C)C(=O)C(N)=O [Compound 36]	6 ± 2 nM		20 ± 3 nM	1.7		
CNC(=O)C(=O)[C@@H](NC(=O)[C@H](C)NC(=O)[C@@H](NC(=O)c1ccccc1)C(C)(C)C)C(C)C [Compound 37]		24 ± 5 nM	494 ± 20 nM			
CC(C)[C@H](NC(=O)[C@H](C)NC(=O)[C@@H](NC(=O)c1ccccc1)C(C)(C)C)C(=O)C(=O)NCc1ccc(S(N)(=O)=O)cc1 [Compound 39]		6 ± 1 nM	984 ± 164 nM			

SMILES	IC50 (Der p 1)	IC50 (Der p 1; mean ± SE)	IC50 (human liver Cat B)	logD at 1.5 h [1]	duration of protection: trend of inhibition of eosinophil recruitment with increasing pre-treatment interval [2]	inhibition of Cat B (human liver Cat B; at 2.5 μM)
CC(C)[C@H](NC(=O)[C@H](C)NC(=O)[C@@H](NC(=O)c1ccccc1)C(C)(C)C)C(=O)C(=O)NCc1ccc(C(F)(F)F)cc1 [Compound 40]		47 ± 7 nM				
CC(C)[C@H](NC(=O)[C@H](C)NC(=O)[C@@H](NC(=O)c1ccccc1)C(C)(C)C)C(=O)C(=O)NCc1ccc(CN(C)C)cc1 [Compound 41]		8 ± 1 nM	242 ± 31 nM			
CC(C)[C@H](NC(=O)[C@H](C)NC(=O)[C@@H](NC(=O)c1ccccc1)C(C)(C)C)C(=O)C(=O)N[C@H](C)c1ccccc1 [Compound 42]		17 ± 2 nM	459 ± 28 nM			
CC(C)[C@H](NC(=O)[C@H](C)NC(=O)[C@@H](NC(=O)c1ccccc1)C(C)(C)C)C(=O)C(=O)N[C@@H](C)c1ccccc1 [Compound 43]		117 ± 34 nM				
CC(C)[C@H](NC(=O)[C@H](C)NC(=O)[C@@H](NC(=O)c1ccccc1)C(C)(C)C)C(=O)C(=O)NCc1cn[nH]c1 [Compound 44]	11 ± 2 nM		367 ± 34 nM			
CC(C)[C@H](NC(=O)[C@H](C)NC(=O)[C@H](Cc1ccccc1)NC(=O)c1ccccc1)C(=O)C(=O)NCC(=O)N1CCCCC1 [Compound 46]	14 ± 3 nM		81 ± 6 nM	2.6		
CC(C)[C@H](NC(=O)[C@H](C)NC(=O)[C@@H](NC(=O)c1ccccc1)C(C)(C)C)C(=O)C(=O)NCC(=O)N1CCN(C)CC1 [Compound 48]		14 ± 2 nM	> 2500 nM	1		no significant inhibition
CC(C)[C@H](NC(=O)[C@H](C)NC(=O)[C@H](Cc1ccccc1)NC(=O)c1ccccc1)C(=O)C(=O)NCC(=O)N1CCN(C(C)C)CC1 [Compound 49]		4 ± 1 nM	> 2500 nM	1.6		
CC(C)[C@H](NC(=O)[C@H](C)NC(=O)[C@H](Cc1ccccc1)NC(=O)c1ccccc1)C(=O)C(=O)N[C@@H](C)C(=O)N1CCN(C)CC1 [Compound 50]		10 ± 1 nM	> 2500 nM			
CC(C)[C@H](NC(=O)[C@H](C)NC(=O)[C@@H](NC(=O)c1ccccc1)C(C)(C)C)C(=O)C(=O)NCC(=O)N1CCc2ccccc2C1 [Compound 51]	6 nM		511 ± 88 nM	3.5		
CC(C)[C@H](NC(=O)[C@H](C)NC(=O)[C@@H](NC(=O)c1ccccc1)C12CC3CC(CC(C3)C1)C2)C(=O)C(=O)NCC(=O)N1CCN(C)CC1 [Compound 54]		5 nM	> 2500 nM		waned	
CC(C)[C@H](NC(=O)[C@H](C)NC(=O)[C@@H](NC(=O)c1ccnc2ccccc12)C(C)(C)C)C(=O)C(=O)NCC(=O)N1CCN(C(C)C)CC1 [Compound 55]		3 nM	> 2500 nM			
CC(C)[C@H](NC(=O)[C@H](C)NC(=O)[C@@H](N1Cc2ccccc2C1=O)C(C)(C)C)C(=O)C(=O)NCc1ccc(S(N)(=O)=O)cc1 [Compound 56]		3 nM	3050 ± 1130 nM			
CNC(=O)c1ccc(CNC(=O)C(=O)[C@@H](NC(=O)[C@H](C)NC(=O)[C@@H](N2Cc3ccccc3C2=O)C(C)(C)C)C(C)C)cc1 [Compound 57]		4 nM	3570 ± 850 nM		rise to a peak	
CC(C)[C@H](NC(=O)[C@H](C)NC(=O)[C@@H](N1Cc2ccccc2C1=O)C(C)(C)C)C(=O)C(=O)NCc1ccc(CN(C)C)cc1 [Compound 58]		4 nM	2850 ± 662 nM			
CC(C)[C@H](NC(=O)[C@H](C)NC(=O)[C@@H](NC(=O)c1cccc2ccccc12)C(C)(C)C)C(=O)C(=O)NCc1ccc(S(N)(=O)=O)cc1 [Compound 59]		4 nM	532 ± 136 nM			
